This passage reports CC50 and EC50 results from US11247965B2 (VenatoRx Pharmaceuticals, Inc., priority 2017, dated 2022).

A value given as a limit tells only on which side of the number the result lay.

Data set [1] in a line: In vitro cytotoxicity, MTT cell viability assay in HepG2 cells. The data set is classed as cell-based. As to conditions: human, Cytotoxicity CC50. Here is the method:
To evaluate antiviral selectivity, the cytotoxic activity of each compound was determined using a standard cell viability assay performed on the parental HepG2 cell line. Cell viability was determined by measuring the conversion of 3-(4,5-dimethylthiazol-2-yl)-2,5-diphenyltetrazolium bromide (MTT) to the insoluble formazan salt crystal that occurs in live cells. Briefly, HepG2 cells were seeded in 96-well plates at a density of 20,000 cells per well in EMEM+10% FBS (complete growth medium) and allowed to adhere overnight in a 37° C., 5% CO2 humidified incubator. The next day, test agents were prepared by performing 8 half-log10 serial dilutions in 100% DMSO at 200× the final desired concentration in the assay. Compounds were tested over a range of concentrations from 30 μM to 1.0 nM in the assay. HepG2 cells were incubated in the presence of various concentrations of CAMs for 7 days in a 37° C., 5% CO2 humidified incubator. At the completion of the 7-day incubation period, MTT reagent was added to each well and the mixture was incubated for an additional 3-4 hours. At the completion of the incubation period, all wells were aspirated to remove the culture medium. The formazan crystals were solubilized from the cell monolayers with 100% DMSO. Plates were briefly mixed on an orbital shaker and absorbance was measured at 492 nm using a Perkin-Elmer EnVision multi-label plate reader. All absorbance values were converted to a percentage of the signal obtained from the vehicle treated controls. Absorbance values at 492 nm are directly proportional to the number of viable cells present in the sample. A CC50 value (cytotoxic concentration that results in loss of 50% cell viability) was calculated from the dose-response curve by 4-parameter, non-linear regression analysis using the GraphPad Prism software. The positive control compound, staurosporine, reduced the viability of HepG2 cells in a dose-dependent manner (CC50=100 nM).

Data set [2] has as its system HBV replication in HepAD38 cells. In words: Anti-HBV activity in HepAD38 cells, extracellular HBV DNA by QPCR. The conditions noted are these: Hepatitis B virus, HePAD38, 168 h, read-out: Anti-HBV EC50, HepAD38 cells, extracellular HBV DNA by QPCR, 7 days of incubation. The data set is classed as cell-based, HBV (genotype D, serotype ayw). Here is the method:
The anti-HBV activity of the Capsid Assembly Modulators (CAMs) was evaluated in a cell based assay utilizing the human hepatoma cell line HepAD38 (Ladner, S K., et al., 1998). HepAD38 cells were derived from the parental line, HepG2, that were stably transfected with a construct containing an HBV genome (genotype D, serotype ayw) under the control of a tetracycline repressible CMV promoter. Upon removal of tetracycline, viral pre-genomic RNA (pgRNA) and mRNAs are expressed and infectious viral particles are assembled and secreted into the culture medium providing a reliable, robust system to measure multiple steps of the HBV life cycle. Disruption of capsid formation results in reduced levels of DNA-containing virus particles that are released into the culture supernatant. To quantify the effect of CAMs on HBV replication, we developed a sensitive QPCR-based assay that measures extracellular HBV DNA levels upon treatment of HepAD38 cells with various concentrations of test compounds.
HepAD38 cells were maintained in DMEM/F12 medium containing 10% FBS, 400 μg/mL G418 and 0.3 μg/mL tetracycline (tet+medium) to maintain repression of HBV replication. To evaluate each compound, HepAD38 cells were seeded into 24-well collagen coated culture plates (Corning BioCoat) at a density of 200,000 cells per well in 1 mL of tet+medium and allowed to adhere overnight at 37° C., 5% CO2 in a humidified incubator. The following day, test articles were subjected to half-logo serial dilutions, ranging from 30 μM to 10 nM, in 100% DMSO at 200× the desired final assay concentration. Tetracycline was removed from the cells by aspirating the tet+medium and washing the cells once with growth medium lacking tetracycline (tet-). Various concentrations of each compound were added to the appropriate wells (1:200 dilution) and the plates were returned to the incubator. Following 7 days of incubation, culture supernatants were harvested and HBV DNA levels were evaluated by QPCR and compared to the vehicle treated control wells (i.e. DMSO alone).
To quantify HBV DNA levels, cell culture supernatants were diluted 1:10 in sterile, nuclease-free water (Gibco). The diluted supernatants were subsequently added to a PCR master mix containing 1× Roche Light Cycler Master Mix, 0.5 μM forward primer, 0.5 μM reverse primer (Fwd:
0.2 μM Roche Universal Probe Library Probe 25. The volume was brought to 20 μL with nuclease-free water and amplification of the HBV target sequence was performed using a Roche LightCycler 480 QPCR instrument. PCR extended out to 45 cycles with each cycle consisting of a denaturation step at 95° C. for 10 sec., followed by an annealing step at 60° C. for 10 sec. and a brief extension step at 72° C. for 1 sec.
Extracellular HBV DNA levels, expressed in copies/mL, were determined by comparison to a standard curve (10^2-10^9 copies/mL) using the Roche LightCycler analysis software. These values were subsequently converted to percent inhibition of HBV replication by dividing the HBV DNA levels in the experimental samples with those obtained from the vehicle control (˜1-2×10^5 copies/mL). Potency, expressed as an EC50 (the effective concentration required to inhibit […] of HBV replication), was calculated from the dose-response curve using a 4-parameter non-linear regression analysis (GraphPad Prism). The nucleoside analog inhibitor entecavir was used as a positive control to validate each assay run. The EC50 value of entecavir in the HepAD38 assay was 0.5 nM, as previously reported in the literature.

Compound `Cc1cc(NC(=O)c2ccc(Cl)c(C(F)(F)C(=O)N3[C@@H]4CC[C@H]3C[C@H](O)C4)c2)ccc1F` [Example 221, 4-chloro-3-(1,1-difluoro-2-((1R,3s,5S)-3-hydroxy-8-azabicyclo[3.2.1]octan-8-yl)-2-oxoethyl)-N-(4-fluoro-3-methylphenyl)benzamide] had a CC50 at 7 days in data set [1] of 5 to 30 µM. For the same compound, the concentration giving a half-maximal response (EC50) in data set [2] is less than 5 µM.

In data set [1], `Cc1cc(NC(=O)c2ccn(C)c2C(F)(F)C(=O)N2CCC(O)CC2)ccc1F` [Example 96, 2-(1,1-difluoro-2-(4-hydroxypiperidin-1-yl)-2-oxoethyl)-N-(4-fluoro-3-methylphenyl)-1-methyl-1H-pyrrole-3-carboxamide] showed a CC50 at 7 days of more than 30 µM. For the same compound, the concentration for a half-maximal effect (EC50) in data set [2] fell in the range of 5 to 30 µM.

In data set [1], `CC(C)n1cc(NC(=O)c2ccc(F)c(C(F)(F)C(=O)N3[C@@H]4CC[C@H]3C[C@H](O)C4)c2)cn1` [Example 185, 3-(1,1-difluoro-2-((1R,3s,5S)-3-hydroxy-8-azabicyclo[3.2.1]octan-8-yl)-2-oxoethyl)-4-fluoro-N-(1-isopropyl-1H-pyrazol-4-yl)benzamide] gave a half-maximal cytotoxic concentration (CC50) at 7 days of more than 30 µM. For the same compound, in data set [2], the concentration giving a half-maximal response (EC50) lay within 5 to 30 µM.

For `Cc1cc(NC(=O)c2ccc(F)c(C(Cl)(Cl)C(=O)N3CC=C(B(O)O)CC3)c2)ccc1F` [Example 151, (1-(2,2-dichloro-2-(2-fluoro-5-((4-fluoro-3-methylphenyl)carbamoyl)phenyl)acetyl)-1,2,3,6-tetrahydropyridin-4-yl)boronic acid], in data set [1], the CC50 at 7 days was more than 30 µM. Moreover, in data set [2], the EC50 is less than 5 µM.

With `Cc1cc(NC(=O)c2c(C)cn(C)c2C(F)(F)C(=O)NC(C)(C)C)ccc1F` [Example 114, 2-(2-(tert-butylamino)-1,1-difluoro-2-oxoethyl)-N-(4-fluoro-3-methylphenyl)-1,4-dimethyl-1H-pyrrole-3-carboxamide], the CC50 at 7 days in data set [1] was more than 30 µM. In addition, the EC50 in data set [2] was more than 30 µM.

`CNC(=O)NCC(=O)N1CC2CN(C(=O)C(F)(F)c3cc(C(=O)Nc4ccc(F)c(C)c4)ccc3F)CC2C1` (stereo not drawn) [Example 284, 3-(1,1-difluoro-2-(5-((methylcarbamoyl)glycyl)hexahydropyrrolo[3,4-c]pyrrol-2(1H)-yl)-2-oxoethyl)-4-fluoro-N-(4-fluoro-3-methylphenyl)benzamide] came in with a CC50 at 7 days in data set [1] of more than 30 µM. Moreover, the EC50 in data set [2] lay in the range of 5 to 30 µM.

In data set [1], `O=C(Nc1ccc(F)c(F)c1)c1ccc(Cl)c(C(F)(F)C(=O)N2CCC(O)CC2)c1` [Example 42, 4-chloro-3-(1,1-difluoro-2-(4-hydroxypiperidin-1-yl)-2-oxoethyl)-N-(3,4-difluorophenyl)benzamide] returned a CC50 at 7 days of 5 to 30 µM. In addition, the EC50 in data set [2] was less than 5 µM.

`C[C@H](NC(=O)C(F)(F)c1c(C(=O)Nc2ccc(F)c(Cl)c2)ccn1C)C(F)(F)F` [Example 141] yielded a cytotoxic concentration (CC50) at 7 days in data set [1] of more than 30 µM. Moreover, the EC50 in data set [2] fell in the range of 5 to 30 µM.

`Cc1cc(NC(=O)c2ccc([C@@H](O)CO)c(C(F)(F)C(=O)N3CCC(O)CC3)c2)ccc1F` [Example 116, (R)-3-(1,1-difluoro-2-(4-hydroxypiperidin-1-yl)-2-oxoethyl)-4-(1,2-dihydroxyethyl)-N-(4-fluoro-3-methylphenyl)benzamide]: in data set [1], the 50% cytotoxic concentration (CC50) at 7 days is more than 30 µM. Besides, the concentration for a half-maximal effect (EC50) in data set [2] was more than 30 µM.

Compound `Cc1cc(NC(=O)c2cc(C(F)(F)C(=O)NC(C)(C)C)cs2)ccc1F` [Example 157, 4-(2-(tert-butylamino)-1,1-difluoro-2-oxoethyl)-N-(4-fluoro-3-methylphenyl)thiophene-2-carboxamide] came in with a 50% cytotoxic concentration (CC50) at 7 days in data set [1] of 5 to 30 µM. The EC50 in data set [2] lay within 5 to 30 µM.

`Cc1cc(NC(=O)c2ccc(F)c(C(F)(F)C(=O)N3CCC(N)CC3)c2)ccc1F` [Example 230, 3-(2-(4-aminopiperidin-1-yl)-1,1-difluoro-2-oxoethyl)-4-fluoro-N-(4-fluoro-3-methylphenyl)benzamide] had a CC50 at 7 days in data set [1] of 5 to 30 µM. Further, in data set [2], the half-maximal effective concentration (EC50) is less than 5 µM.

Compound `Cc1cc(NC(=O)c2ccc(F)c(C(F)(F)C(=O)N3CCC(O)(CO)CC3)c2)cc(F)c1F` [Example 248, 3-(1,1-difluoro-2-(4-hydroxy-4-(hydroxymethyl)piperidin-1-yl)-2-oxoethyl)-N-(3,4-difluoro-5-methylphenyl)-4-fluorobenzamide] came in with a CC50 at 7 days in data set [1] of 5 to 30 µM. Also, the concentration giving a half-maximal response (EC50) in data set [2] was less than 5 µM.

Turning to `CC(=O)Nc1nc2c(s1)CN(C(=O)C(F)(F)c1cc(C(=O)Nc3ccc(F)c(C)c3)ccc1F)CC2` [Example 288, 3-(2-(2-acetamido-6,7-dihydrothiazolo[5,4-c]pyridin-5(4H)-yl)-1,1-difluoro-2-oxoethyl)-4-fluoro-N-(4-fluoro-3-methylphenyl)benzamide], the half-maximal cytotoxic concentration (CC50) at 7 days in data set [1] is 5 to 30 µM. Also, the concentration for a half-maximal effect (EC50) in data set [2] is less than 5 µM.

Take `Cc1cc(NC(=O)c2ccc(F)c(C(F)(F)C(=O)N3CCOC[C@H]3C(=O)O)c2)ccc1F` [Example 237, (S)-4-(2,2-difluoro-2-(2-fluoro-5-((4-fluoro-3-methylphenyl)carbamoyl)phenyl)acetyl)morpholine-3-carboxylic acid]: the cytotoxic concentration (CC50) at 7 days in data set [1] was more than 30 µM. In addition, the concentration giving a half-maximal response (EC50) in data set [2] lay in the range of 5 to 30 µM.

Regarding `Cc1cc(NC(=O)c2ccc(Cl)c(C(F)(F)C(=O)N3CC[C@@H](O)[C@@H](O)C3)c2)ccc1F` [Example 57, 4-chloro-3-(2-((3S,4R)-3,4-dihydroxypiperidin-1-yl)-1,1-difluoro-2-oxoethyl)-N-(4-fluoro-3-methylphenyl)benzamide], the CC50 at 7 days in data set [1] was more than 30 µM. In addition, in data set [2], the concentration giving a half-maximal response (EC50) is less than 5 µM.

Turning to `O=C(Nc1ccc(F)c(F)c1)c1ccc(F)c(C(F)(F)C(=O)N2CCC(CO)CC2)c1` [Example 48, 3-(1,1-difluoro-2-(4-(hydroxymethyl)piperidin-1-yl)-2-oxoethyl)-N-(3,4-difluorophenyl)-4-fluorobenzamide], the half-maximal cytotoxic concentration (CC50) at 7 days in data set [1] lay in the range of 5 to 30 µM. Moreover, in data set [2], the 50% effective concentration (EC50) was less than 5 µM.

For `CNCC(=O)NC1CCN(C(=O)C(F)(F)c2nc(C(=O)Nc3ccc(F)c(C)c3)ccc2F)CC1(C)C` (stereo not drawn) [Example 302, 6-(2-(3,3-dimethyl-4-(2-(methylamino)acetamido)piperidin-1-yl)-1,1-difluoro-2-oxoethyl)-5-fluoro-N-(4-fluoro-3-methylphenyl)picolinamide], the CC50 at 7 days in data set [1] lay in the range of 5 to 30 µM. In addition, in data set [2], the EC50 is less than 5 µM.

As to `Cc1cc(NC(=O)c2ccn(C)c2C(F)(F)C(=O)NC(C)(C)C)ccc1F` [Example 101, 2-(2-(tert-butylamino)-1,1-difluoro-2-oxoethyl)-N-(4-fluoro-3-methylphenyl)-1-methyl-1H-pyrrole-3-carboxamide], in data set [1], the CC50 at 7 days is more than 30 µM. For the same compound, in data set [2], the EC50 is less than 5 µM.
